Columns and labels:
Experiment in all cases: 72 h toxicity of erlotinib, cell viability / IC50 analysis
Assay type in all cases: cell-based
H820 cells = conditions: Homo sapiens, NCI-H820, H820 (del E746-E749 and T790M)
Procedure: (§1) FIG. 42A,B. FIG. 42A and 42B show 72 h toxicity of erlotinib in various NSCLC cells lines: (A) Cell viability plot and (B) IC50 analysis. Results were averaged from 3 independent experiments.
(§2) (A, C, E) Represent the cell viability plot and (B, D, F) represent the associated IC50 analysis.
(§3) The IC50 of erlotinib was investigated in multiple cell lines based on their AXL and FN14 expressions and EGFR/KRAS mutant status (FIG. 42). […] The independent and combined effects of AXL and FN14 siRNAs were also examined. siRNA and siRNA based constructs for treatment and studied variation in IC50 of erlotinib in multiples drug resistant cell lines were used.

H1975 = conditions: Homo sapiens, NCI-H1975; T790M mutant H1975, 72 h
Procedure: as §1, §3

HCC827 = HCC827 carrying E746-A750 deletion
Procedure: as §1, §3

A549 = tested on: A549
Procedure: as §1, §2, §3
Rho, et al., Cancer Res 2014; 74: 253-262. […] Srikar, et al., Sci Rep 2016; 6: 30245.

C#Cc1cccc(Nc2ncnc3cc(OCCOC)c(OCCOC)cc23)c1 [erlotinib]
IC50 (H820 cells): > 10 µM
IC50 (H1975): > 10 µM
sensitivity to erlotinib (HCC827): highly sensitive
resensitization towards the drug (A549; A549, downregulating all three pathways (AXL, FN14, KRAS)): total resensitization
IC50 (A549; Homo sapiens, A549, 72 h, read-out: IC50 of erlotinib): > 10 µM

From US11576873B2, “Compositions for the treatment of drug-resistant tumors and methods of use thereof” (THE CURATORS OF THE UNIVERSITY OF MISSOURI, priority 2017, dated 2023)
